Test results taken from ChEMBL document CHEMBL3044672, “N9- and N7-(Chloromethyl Phenymethyl)Chloropurine Derivatives from , '-Dichloroxylenes: Synthesis and Anticancer Activity” (2005).

Key:
Type in all cases: functional
NCI-H460 = test: Cytotoxicity against Homo sapiens (human) NCI-H460 cells after 48 hr by sulforhodamine B assay; settings: NCI-H460, 48 h
SK-OV-3 = test: Cytotoxicity against Homo sapiens (human) SKOV3 cells after 48 hr by sulforhodamine B assay; settings: SK-OV-3, 48 h
OVCAR-4 = test: Cytotoxicity against Homo sapiens (human) OVCAR4 cells after 48 hr by sulforhodamine B assay; settings: OVCAR-4, 48 h
HT-29 = test: Cytotoxicity against Homo sapiens (human) HT-29 cells after 48 hr by sulforhodamine B assay; settings: HT-29, 48 h
RPMI-8226 = test: Cytotoxicity against Homo sapiens (human) RPMI8226 cells after 48 hr by sulforhodamine B assay; settings: RPMI-8226, 48 h
SW-620 = test: Cytotoxicity against Homo sapiens (human) SW620 cells after 48 hr by sulforhodamine B assay; settings: SW-620, 48 h
OVCAR-3 = test: Cytotoxicity against Homo sapiens (human) OVCAR3 cells after 48 hr by sulforhodamine B assay; settings: OVCAR-3, 48 h
NCI-H322M = test: Cytotoxicity against Homo sapiens (human) NCI-H322M cells after 48 hr by sulforhodamine B assay
OVCAR-5 = test: Cytotoxicity against Homo sapiens (human) OVCAR5 cells after 48 hr by sulforhodamine B assay; settings: OVCAR-5, 48 h
T47D = test: Cytotoxicity against Homo sapiens (human) T47D cells after 48 hr by sulforhodamine B assay
COLO 205 = test: Cytotoxicity against Homo sapiens (human) COLO205 cells after 48 hr by sulforhodamine B assay; settings: COLO 205, 48 h
TK-10 = test: Cytotoxicity against Homo sapiens (human) TK10 cells after 48 hr by sulforhodamine B assay; settings: TK-10, 48 h
PC-3 = test: Cytotoxicity against Homo sapiens (human) PC3 cells after 48 hr by sulforhodamine B assay; settings: PC-3, 48 h
IGROV-1 = test: Cytotoxicity against Homo sapiens (human) IGROV1 cells after 48 hr by sulforhodamine B assay; settings: IGROV-1, 48 h
MCF7 = test: Cytotoxicity against Homo sapiens (human) MCF7 cells after 48 hr by sulforhodamine B assay; settings: MCF7, 48 h
RXF 393 = test: Cytotoxicity against Homo sapiens (human) RXF393 cells after 48 hr by sulforhodamine B assay; settings: RXF 393, 48 h
Hs-578T = test: Cytotoxicity against Homo sapiens (human) Hs 578T cells after 48 hr by sulforhodamine B assay
SF-268 = test: Cytotoxicity against Homo sapiens (human) SF268 cells assessed as cell growth at 10^-4 M after 48 hr by […] assay; settings: SF-268, 48 h, read-out: Activity
MOLT-4 = test: Cytotoxicity against Homo sapiens (human) MOLT4 cells after 48 hr by sulforhodamine B assay; settings: MOLT-4, 48 h
DU-145 = test: Cytotoxicity against Homo sapiens (human) DU145 cells after 48 hr by sulforhodamine B assay; settings: DU-145, 48 h
SK-MEL-2 = test: Cytotoxicity against Homo sapiens (human) SK-MEL-2 cells after 48 hr by sulforhodamine B assay; settings: SK-MEL-2, 48 h
HOP-62 = test: Cytotoxicity against Homo sapiens (human) HOP62 cells after 48 hr by sulforhodamine B assay; settings: HOP-62, 48 h
MDA-MB-435 = test: Cytotoxicity against Homo sapiens (human) MDA-MB-435 cells after 48 hr by sulforhodamine B assay; settings: MDA-MB-435, 48 h
HCT-116 = test: Cytotoxicity against Homo sapiens (human) HCT116 cells after 48 hr by sulforhodamine B assay; settings: HCT-116, 48 h
KM12 = test: Cytotoxicity against Homo sapiens (human) KM12 cells after 48 hr by sulforhodamine B assay; settings: KM12, 48 h
SK-MEL-5 = test: Cytotoxicity against Homo sapiens (human) SK-MEL-5 cells after 48 hr by sulforhodamine B assay; settings: SK-MEL-5, 48 h
HCC 2998 = test: Cytotoxicity against Homo sapiens (human) HCC2998 cells after 48 hr by sulforhodamine B assay; settings: HCC 2998, 48 h
SF-295 = test: Cytotoxicity against Homo sapiens (human) SF295 cells after 48 hr by sulforhodamine B assay; settings: SF-295, 48 h
SNB-75 = test: Cytotoxicity against Homo sapiens (human) SNB75 cells after 48 hr by sulforhodamine B assay; settings: SNB-75, 48 h
MDA-MB-231 = test: Cytotoxicity against Homo sapiens (human) MDA-MB-231 cells after 48 hr by sulforhodamine B assay; settings: MDA-MB-231, 48 h
EKVX = test: Cytotoxicity against Homo sapiens (human) EKVX cells after 48 hr by sulforhodamine B assay
[1] = read-out: LC50 (the source's name)

ClCc1ccc(Cn2cnc3c(Cl)nc(Cl)nc32)cc1
GI50 (NCI-H460): 2.4 µM
TGI (NCI-H460): 4.9 µM
CC50 (NCI-H460; [1]): 28.8 µM
GI50 (SK-OV-3): 13.5 µM
LC50 (SK-OV-3): 66.1 µM
TGI (SK-OV-3): 29.5 µM
GI50 (OVCAR-4): 4.9 µM
LC50 (concentration killing 50% of cells) (OVCAR-4): 61.7 µM
TGI (OVCAR-4): 18.6 µM
GI50 (HT-29): 2.88 µM
TGI (HT-29): > 100 µM
CC50 (HT-29; [1]): > 100 µM
GI50 (RPMI-8226): 1.74 µM
TGI (RPMI-8226): 3.8 µM
GI50 (SW-620): 3.8 µM
TGI (SW-620): 17.4 µM
CC50 (SW-620; [1]): 56.2 µM
GI50 (OVCAR-3): 2 µM
LC50 (OVCAR-3): 9.55 µM
TGI (OVCAR-3): 4.37 µM
GI50 (NCI-H322M): 12.6 µM
TGI (NCI-H322M): 25.1 µM
CC50 (NCI-H322M; [1]): 50.1 µM
GI50 (OVCAR-5): 18.2 µM
TGI (OVCAR-5): 34.7 µM
CC50 (OVCAR-5; [1]): 66.1 µM
GI50 (T47D): 1.38 µM
LC50 (T47D): > 100 µM
TGI (T47D): 5.5 µM
GI50 (COLO 205): 3.47 µM
TGI (COLO 205): > 100 µM
CC50 (COLO 205; [1]): > 100 µM
GI50 (TK-10): 6.61 µM
TGI (TK-10): 20.4 µM
CC50 (TK-10; [1]): 44.7 µM
GI50 (PC-3): 2.69 µM
LC50 (concentration causing 50% cell kill) (PC-3): 45.7 µM
TGI (PC-3): 7.24 µM
GI50 (IGROV-1): 15.1 µM
LC50 (IGROV-1): 60.3 µM
TGI (IGROV-1): 30.2 µM
GI50 (MCF7): 1.74 µM
LC50 (concentration killing 50% of cells) (MCF7): > 100 µM
TGI (MCF7): 3.98 µM
GI50 (RXF 393): 20.9 µM
TGI (RXF 393): 41.7 µM
CC50 (RXF 393; [1]): 83.2 µM
GI50 (Hs-578T): 2.14 µM
LC50 (Hs-578T): > 100 µM
TGI (Hs-578T): 5.75 µM
growth at 100 µM (SF-268): 0%
GI50 (MOLT-4): 10.5 µM
TGI (MOLT-4): 27.5 µM
CC50 (MOLT-4; [1]): 72.4 µM
GI50 (DU-145): 5.62 µM
LC50 (DU-145): 42.7 µM
TGI (DU-145): 17.8 µM
GI50 (SK-MEL-2): 19.9 µM
LC50 (concentration killing 50% of cells) (SK-MEL-2): 95.5 µM
TGI (SK-MEL-2): 43.6 µM
GI50 (HOP-62): 2.19 µM
TGI (HOP-62): 5.13 µM
CC50 (HOP-62; [1]): 19.5 µM
GI50 (MDA-MB-435): 12.6 µM
LC50 (MDA-MB-435): 50.1 µM
TGI (MDA-MB-435): 25.1 µM
GI50 (HCT-116): 1.7 µM
TGI (HCT-116): 3.63 µM
CC50 (HCT-116; [1]): 7.59 µM
GI50 (KM12): 1.82 µM
TGI (KM12): 3.24 µM
CC50 (KM12; [1]): 5.75 µM
GI50 (SK-MEL-5): 6.46 µM
LC50 (SK-MEL-5): 44.7 µM
TGI (SK-MEL-5): 19.1 µM
GI50 (HCC 2998): 10.2 µM
TGI (HCC 2998): 24 µM
CC50 (HCC 2998; [1]): 56.2 µM
GI50 (SF-295): 7.24 µM
TGI (SF-295): 19.5 µM
CC50 (SF-295; [1]): 44.7 µM
GI50 (SNB-75): 3.16 µM
TGI (SNB-75): 9.33 µM
CC50 (SNB-75; [1]): 45.7 µM
GI50 (MDA-MB-231): 1.82 µM
LC50 (MDA-MB-231): 7.24 µM
TGI (MDA-MB-231): 3.63 µM
GI50 (EKVX): 17.4 µM
TGI (EKVX): 31.6 µM
CC50 (EKVX; [1]): 58.9 µM
